Our source for the Ki values is the kinase profiling compilation of Christmann-Franck et al. (2016).

For orientation: Ki means a measure of affinity in units of concentration, obtained from inhibition or displacement.

In one assay the target is FGFR2 (human) (UniProt P21802). Description: Caliper, Mobility shift assay off-chip.
The next assay concerns the target PDGFRB (human) (UniProt P09619). Description: Caliper, Mobility shift assay off-chip.
The next assay concerns the target CSF1R (human) (UniProt P07333). Description: Caliper, Mobility shift assay off-chip.
The next assay addresses ABL2 (human) (UniProt P42684). Description: Caliper, Mobility shift assay off-chip.
For another assay, the target named is PRKAA1 (human) (UniProt Q13131). Description: Caliper, Mobility shift assay off-chip.
The target in another assay is HIPK4 (human) (UniProt Q8NE63). Description: Caliper, Mobility shift assay off-chip.
In a further assay the target is MAPK14 (human) (UniProt Q16539). Description: Caliper, Mobility shift assay off-chip.
The next assay concerns the target DDR2 (human) (UniProt Q16832). Description: Caliper, Mobility shift assay off-chip.
The next assay concerns the target AURKA (human) (UniProt O14965). Nature of the assay: Caliper, Mobility shift assay off-chip.
For another assay, the target named is PRKAA2 (human) (UniProt P54646). Nature of the assay: Caliper, Mobility shift assay off-chip.
The next assay deals with MUSK (human) (UniProt O15146). Nature of the assay: Caliper, Mobility shift assay off-chip.
A further assay deals with DDR1 (human) (UniProt Q08345). Nature of the assay: Caliper, Mobility shift assay off-chip.
The target of the next assay is EPHA6 (human) (UniProt Q9UF33). Description: Caliper, Mobility shift assay off-chip.
The next assay deals with MAP2K3 (human) (UniProt P46734). Description: ELISA.
For another assay, the target named is MAP2K6 (human) (UniProt P52564). Nature of the assay: ELISA.
The next assay concerns the target PDGFRA (human) (UniProt P16234). Description: Caliper, Mobility shift assay off-chip.
Another assay addresses RAF1 (human) (UniProt P04049). Nature of the assay: ELISA. (ELISA stands for enzyme-linked immunosorbent assay.)
A further assay addresses BRAF (human) (UniProt P15056). Nature of the assay: ELISA.

Chain of ABL2 (human) (P42684 whole entry, looked up): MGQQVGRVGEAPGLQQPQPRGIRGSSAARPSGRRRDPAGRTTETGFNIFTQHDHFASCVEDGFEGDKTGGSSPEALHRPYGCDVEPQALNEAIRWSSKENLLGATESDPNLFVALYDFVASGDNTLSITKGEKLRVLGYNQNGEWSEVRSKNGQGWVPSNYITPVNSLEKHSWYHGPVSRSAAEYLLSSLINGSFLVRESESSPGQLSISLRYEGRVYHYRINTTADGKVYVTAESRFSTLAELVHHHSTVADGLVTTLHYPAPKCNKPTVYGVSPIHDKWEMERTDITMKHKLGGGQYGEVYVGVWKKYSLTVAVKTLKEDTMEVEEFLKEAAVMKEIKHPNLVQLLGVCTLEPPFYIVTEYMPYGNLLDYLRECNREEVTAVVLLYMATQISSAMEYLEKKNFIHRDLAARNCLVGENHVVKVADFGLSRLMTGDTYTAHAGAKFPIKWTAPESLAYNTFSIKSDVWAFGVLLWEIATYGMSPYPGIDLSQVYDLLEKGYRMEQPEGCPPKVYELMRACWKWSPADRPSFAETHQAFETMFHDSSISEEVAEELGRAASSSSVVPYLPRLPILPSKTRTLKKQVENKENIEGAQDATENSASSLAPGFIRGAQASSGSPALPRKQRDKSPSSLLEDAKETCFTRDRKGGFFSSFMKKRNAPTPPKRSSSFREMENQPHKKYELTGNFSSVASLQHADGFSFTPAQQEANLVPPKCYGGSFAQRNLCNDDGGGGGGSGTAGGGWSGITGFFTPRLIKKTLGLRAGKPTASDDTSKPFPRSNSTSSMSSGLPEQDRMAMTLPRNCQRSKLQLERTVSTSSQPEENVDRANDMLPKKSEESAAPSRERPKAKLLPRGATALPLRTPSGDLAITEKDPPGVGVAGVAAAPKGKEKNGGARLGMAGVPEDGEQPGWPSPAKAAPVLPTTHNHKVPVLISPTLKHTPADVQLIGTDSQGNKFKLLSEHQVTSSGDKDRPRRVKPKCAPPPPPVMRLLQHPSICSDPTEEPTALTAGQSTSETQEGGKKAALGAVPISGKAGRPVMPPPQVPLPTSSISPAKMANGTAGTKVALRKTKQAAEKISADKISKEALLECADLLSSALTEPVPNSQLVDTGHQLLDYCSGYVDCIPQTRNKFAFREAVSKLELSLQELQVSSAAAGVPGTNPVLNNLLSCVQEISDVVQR
Chain of PRKAA2 (human) (P54646 whole entry, looked up): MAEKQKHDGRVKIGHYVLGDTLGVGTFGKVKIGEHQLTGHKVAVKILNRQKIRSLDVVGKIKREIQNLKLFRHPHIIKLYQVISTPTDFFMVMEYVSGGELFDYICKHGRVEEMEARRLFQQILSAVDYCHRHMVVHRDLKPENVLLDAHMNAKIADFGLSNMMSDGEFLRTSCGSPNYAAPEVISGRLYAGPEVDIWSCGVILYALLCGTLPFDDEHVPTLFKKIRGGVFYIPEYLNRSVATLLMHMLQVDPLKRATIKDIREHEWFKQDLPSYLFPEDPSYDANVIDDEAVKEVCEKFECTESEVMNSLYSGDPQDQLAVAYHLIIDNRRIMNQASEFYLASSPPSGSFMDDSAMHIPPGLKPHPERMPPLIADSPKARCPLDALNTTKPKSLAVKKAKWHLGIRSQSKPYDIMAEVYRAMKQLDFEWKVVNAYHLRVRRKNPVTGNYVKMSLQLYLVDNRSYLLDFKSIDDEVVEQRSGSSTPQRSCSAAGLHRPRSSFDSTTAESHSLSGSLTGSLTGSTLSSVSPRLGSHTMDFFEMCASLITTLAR
Chain of PRKAA1 (human) (Q13131 whole entry, looked up): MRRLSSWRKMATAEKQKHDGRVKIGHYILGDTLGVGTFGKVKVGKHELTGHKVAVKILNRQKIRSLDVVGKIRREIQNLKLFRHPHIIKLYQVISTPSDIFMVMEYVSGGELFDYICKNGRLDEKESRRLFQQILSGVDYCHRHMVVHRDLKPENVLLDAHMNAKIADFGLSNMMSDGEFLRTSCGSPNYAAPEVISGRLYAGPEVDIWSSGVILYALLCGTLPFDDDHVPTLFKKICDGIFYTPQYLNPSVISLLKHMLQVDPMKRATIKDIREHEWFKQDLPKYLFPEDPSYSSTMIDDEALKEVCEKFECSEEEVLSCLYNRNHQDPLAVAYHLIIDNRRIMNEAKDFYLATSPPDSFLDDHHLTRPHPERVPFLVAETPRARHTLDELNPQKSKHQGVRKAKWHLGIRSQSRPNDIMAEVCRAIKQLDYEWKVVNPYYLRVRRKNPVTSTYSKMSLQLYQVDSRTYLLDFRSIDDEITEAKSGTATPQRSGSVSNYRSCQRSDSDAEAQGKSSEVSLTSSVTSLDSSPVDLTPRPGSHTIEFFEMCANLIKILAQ
Chain of DDR2 (human) (Q16832 whole entry, looked up): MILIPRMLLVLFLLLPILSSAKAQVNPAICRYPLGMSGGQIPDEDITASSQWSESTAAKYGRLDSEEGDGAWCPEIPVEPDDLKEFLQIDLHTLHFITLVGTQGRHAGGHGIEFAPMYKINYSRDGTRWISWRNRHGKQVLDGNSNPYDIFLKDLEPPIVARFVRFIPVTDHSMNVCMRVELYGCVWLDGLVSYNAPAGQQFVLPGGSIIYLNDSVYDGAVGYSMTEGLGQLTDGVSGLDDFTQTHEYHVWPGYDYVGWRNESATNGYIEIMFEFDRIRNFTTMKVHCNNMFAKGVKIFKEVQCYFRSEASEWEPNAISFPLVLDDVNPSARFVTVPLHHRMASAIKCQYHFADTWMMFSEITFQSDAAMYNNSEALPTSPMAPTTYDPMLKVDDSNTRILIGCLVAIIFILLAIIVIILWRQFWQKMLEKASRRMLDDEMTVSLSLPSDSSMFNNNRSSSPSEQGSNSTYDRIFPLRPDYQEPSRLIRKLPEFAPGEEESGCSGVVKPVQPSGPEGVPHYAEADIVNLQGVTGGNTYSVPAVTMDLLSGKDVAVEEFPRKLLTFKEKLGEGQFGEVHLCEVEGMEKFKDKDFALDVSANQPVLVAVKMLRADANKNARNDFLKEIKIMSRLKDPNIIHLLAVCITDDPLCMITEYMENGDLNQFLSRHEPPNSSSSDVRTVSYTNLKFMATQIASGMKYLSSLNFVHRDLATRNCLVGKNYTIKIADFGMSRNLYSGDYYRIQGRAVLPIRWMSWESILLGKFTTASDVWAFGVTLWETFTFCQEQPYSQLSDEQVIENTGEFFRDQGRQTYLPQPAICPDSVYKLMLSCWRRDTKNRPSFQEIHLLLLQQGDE
Chain of BRAF (human) (P15056 whole entry, looked up): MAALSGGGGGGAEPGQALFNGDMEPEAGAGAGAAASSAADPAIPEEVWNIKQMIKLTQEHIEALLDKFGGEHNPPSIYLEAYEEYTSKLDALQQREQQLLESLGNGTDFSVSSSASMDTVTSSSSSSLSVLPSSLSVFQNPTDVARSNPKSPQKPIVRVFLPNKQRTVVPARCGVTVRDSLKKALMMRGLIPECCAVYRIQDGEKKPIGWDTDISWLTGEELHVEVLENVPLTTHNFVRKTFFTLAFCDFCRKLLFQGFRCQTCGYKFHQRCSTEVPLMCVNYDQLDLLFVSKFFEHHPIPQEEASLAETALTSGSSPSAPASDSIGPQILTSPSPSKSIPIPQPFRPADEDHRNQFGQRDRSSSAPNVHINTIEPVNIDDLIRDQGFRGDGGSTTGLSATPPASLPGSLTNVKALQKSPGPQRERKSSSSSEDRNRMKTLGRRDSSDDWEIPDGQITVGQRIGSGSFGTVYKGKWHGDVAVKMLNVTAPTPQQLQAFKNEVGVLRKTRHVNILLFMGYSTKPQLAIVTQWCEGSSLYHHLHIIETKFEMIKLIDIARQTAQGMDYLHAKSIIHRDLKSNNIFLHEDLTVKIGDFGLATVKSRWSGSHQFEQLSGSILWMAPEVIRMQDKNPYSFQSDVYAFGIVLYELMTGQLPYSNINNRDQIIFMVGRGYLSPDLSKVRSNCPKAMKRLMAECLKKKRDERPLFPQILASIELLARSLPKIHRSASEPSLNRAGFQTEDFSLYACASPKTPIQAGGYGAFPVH
Chain of FGFR2 (human) (P21802 whole entry, looked up): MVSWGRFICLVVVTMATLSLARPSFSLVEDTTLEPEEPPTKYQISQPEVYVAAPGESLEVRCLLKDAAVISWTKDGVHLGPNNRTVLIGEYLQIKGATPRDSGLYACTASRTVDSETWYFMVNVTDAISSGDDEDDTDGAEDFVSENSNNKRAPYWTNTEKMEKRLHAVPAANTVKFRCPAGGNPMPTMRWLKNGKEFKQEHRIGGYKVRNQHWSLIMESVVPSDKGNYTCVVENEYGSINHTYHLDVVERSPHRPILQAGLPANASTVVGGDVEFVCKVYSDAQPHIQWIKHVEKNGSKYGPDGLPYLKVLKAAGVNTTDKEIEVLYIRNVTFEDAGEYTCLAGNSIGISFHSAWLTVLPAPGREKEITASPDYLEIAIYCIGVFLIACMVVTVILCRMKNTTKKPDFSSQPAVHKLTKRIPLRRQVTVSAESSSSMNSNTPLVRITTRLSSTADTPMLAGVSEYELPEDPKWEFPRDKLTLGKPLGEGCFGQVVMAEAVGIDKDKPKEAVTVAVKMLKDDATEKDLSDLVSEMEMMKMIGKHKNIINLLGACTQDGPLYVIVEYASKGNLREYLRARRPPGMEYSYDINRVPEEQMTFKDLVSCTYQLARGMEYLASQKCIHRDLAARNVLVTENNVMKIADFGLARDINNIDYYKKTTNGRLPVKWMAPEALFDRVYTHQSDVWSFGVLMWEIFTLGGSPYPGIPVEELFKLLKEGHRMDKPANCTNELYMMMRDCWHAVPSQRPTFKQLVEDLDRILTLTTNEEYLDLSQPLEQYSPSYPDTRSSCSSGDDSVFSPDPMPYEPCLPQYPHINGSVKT
Chain of MAP2K6 (human) (P52564 whole entry, looked up): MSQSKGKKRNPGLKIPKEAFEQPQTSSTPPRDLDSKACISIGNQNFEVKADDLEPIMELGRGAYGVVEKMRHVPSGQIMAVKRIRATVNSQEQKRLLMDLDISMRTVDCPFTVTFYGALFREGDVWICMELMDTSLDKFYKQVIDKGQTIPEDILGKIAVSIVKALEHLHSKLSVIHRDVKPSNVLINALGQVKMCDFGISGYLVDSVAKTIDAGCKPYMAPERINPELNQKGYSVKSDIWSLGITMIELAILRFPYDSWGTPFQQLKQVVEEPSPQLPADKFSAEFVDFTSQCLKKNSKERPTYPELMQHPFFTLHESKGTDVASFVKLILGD

As for `Cc1cc2c(F)c(Oc3ncnn4cc(OC[C@@H](C)O)c(C)c34)ccc2[nH]1`, the Ki on FGFR2 (human) came out at 18.1 nM.

Regarding `COc1cc2nccc(Oc3ccc(NC(=O)Nc4cc(C)on4)c(Cl)c3)c2cc1OC`, the Ki at PDGFRB (human) amounted to 1.4 nM; at CSF1R (human) it was 45.8 nM; on ABL2 (human) it was 52.5 nM; on PRKAA1 (human) it was 1500 nM; on HIPK4 (human) it was 42.9 nM; on MAPK14 (human), 266 nM. In addition, the Ki on DDR2 (human) was 1.95 nM; at AURKA (human), 86.5 nM; at PRKAA2 (human), 1500 nM; on MUSK (human), 291 nM; on DDR1 (human), 52 nM; on EPHA6 (human), 3.14 nM. Also, the results for the Ki at MAP2K3 (human) and on MAP2K6 (human) were 272 nM and 302 nM, respectively.

For `Cc1ccc(F)c(NC(=O)Nc2ccc(-c3cccc4[nH]nc(N)c34)cc2)c1`, the Ki at PDGFRA (human) turned out to be 2.76 nM; on ABL2 (human), 5000 nM; at PRKAA2 (human), 1670 nM; on RAF1 (human), 5000 nM; at BRAF (human), 5000 nM.
